What follows are compounds tested on Plasmodium falciparum (assay: Antimalarial activity against asexual blood stage of Plasmodium falciparum 3D7 infected in human erythrocytes assessed as inhibition of parasite growth and propagation incubated for 72 hrs by SYBR green dye based fluorescence assay). Conditions: 3D7, Erythrocyte.
Assay type: functional, organism-based

SMILES | IC50 [nM]
C[C@@H]1C[C@H](N2C(=N)N[C@](C)(c3cccc(NC(=O)c4cc(Cl)cc(C#N)c4)c3Cl)CC2=O)CCO1 | 7
Cc1cc(Cl)cc(C(=O)Nc2cccc([C@]3(C)CC(=O)N([C@@H]4CCO[C@H](C)C4)C(=N)N3)c2Cl)c1 | 9
C[C@@H]1C[C@H](N2C(=N)N[C@](C)(c3cccc(NC(=O)c4cccc(Cl)c4)c3Cl)CC2=O)CCO1 | 9
C[C@@H]1C[C@H](N2C(=N)N[C@](C)(c3cccc(NC(=O)c4cccc(C#N)c4)c3Cl)CC2=O)CCO1 | 8
C[C@@H]1C[C@H](N2C(=N)N[C@](C)(c3cccc(NC(=O)c4cccc(C#N)c4F)c3Cl)CC2=O)CCO1 | 6
C[C@@H]1C[C@H](N2C(=N)N[C@](C)(c3cccc(NC(=O)c4cc(C#N)cn4C)c3Cl)CC2=O)CCO1 | 5

Source: ChEMBL document CHEMBL4706734, “Novel Hexahydropyrimidine Compounds for Treating Malaria” (ACS Med Chem Lett, 2021)
